Numbers after ± are expanded uncertainties.
Assay: xn = mol fraction of the nth substance listed
Settings: 101.3 kPa, Liquid; for viscosity: Concentric cylinders viscometry; for mass density: Vibrating tube method

**Q.** For `COCCOCCOCCOCCOC` [2,5,8,11,14-pentaoxapentadecane] + CCC(C)O, which viscosity (288.15 K, x2 = 0) is on record?
**A.** 4.341 ± 0.051 mPa·s

**Q.** What about the viscosity (288.15 K, x2 = 0.1007) of the same compound?
**A.** 4.092 ± 0.048 mPa·s

**Q.** What about the viscosity (288.15 K, x2 = 0.2003) of the same compound?
**A.** 3.792 ± 0.044 mPa·s

**Q.** And the viscosity (288.15 K, x2 = 0.3015)?
**A.** 3.531 ± 0.041 mPa·s

**Q.** What about the viscosity (288.15 K, x2 = 0.3991) of the same compound?
**A.** 3.342 ± 0.038 mPa·s

**Q.** And the viscosity (288.15 K, x2 = 0.5011)?
**A.** 3.157 ± 0.036 mPa·s

**Q.** What about the viscosity (288.15 K, x2 = 0.6024) of the same compound?
**A.** 2.972 ± 0.034 mPa·s

**Q.** And the viscosity (288.15 K, x2 = 0.6997)?
**A.** 2.853 ± 0.032 mPa·s

**Q.** What about the viscosity (288.15 K, x2 = 0.7998) of the same compound?
**A.** 2.874 ± 0.032 mPa·s

**Q.** And the viscosity (288.15 K, x2 = 0.9004)?
**A.** 3.166 ± 0.035 mPa·s

**Q.** And the mass density (288.15 K, x2 = 0)?
**A.** 1015.63 ± 0.24 kg/m3

**Q.** What about the mass density (288.15 K, x2 = 0.1007) of the same compound?
**A.** 1006.23 ± 0.21 kg/m3

**Q.** What about the mass density (288.15 K, x2 = 0.2003) of the same compound?
**A.** 995.702 ± 0.19 kg/m3

**Q.** What about the mass density (288.15 K, x2 = 0.3015) of the same compound?
**A.** 983.46 ± 0.18 kg/m3

**Q.** What about the mass density (288.15 K, x2 = 0.3991) of the same compound?
**A.** 969.921 ± 0.17 kg/m3

**Q.** What about the mass density (288.15 K, x2 = 0.5011) of the same compound?
**A.** 953.53 ± 0.15 kg/m3

**Q.** And the mass density (288.15 K, x2 = 0.6024)?
**A.** 934.399 ± 0.15 kg/m3

**Q.** And the mass density (288.15 K, x2 = 0.6997)?
**A.** 912.674 ± 0.14 kg/m3

**Q.** And the mass density (288.15 K, x2 = 0.7998)?
**A.** 885.897 ± 0.14 kg/m3

**Q.** What about the mass density (288.15 K, x2 = 0.9004) of the same compound?
**A.** 852.63 ± 0.15 kg/m3

**Q.** What about the viscosity (293.15 K, x2 = 0) of the same compound?
**A.** 3.834 ± 0.045 mPa·s

**Q.** What about the viscosity (293.15 K, x2 = 0.1007) of the same compound?
**A.** 3.582 ± 0.042 mPa·s

**Q.** What about the viscosity (293.15 K, x2 = 0.2003) of the same compound?
**A.** 3.32 ± 0.039 mPa·s

**Q.** What about the viscosity (293.15 K, x2 = 0.3015) of the same compound?
**A.** 3.099 ± 0.036 mPa·s

**Q.** And the viscosity (293.15 K, x2 = 0.3991)?
**A.** 2.941 ± 0.034 mPa·s

**Q.** What about the viscosity (293.15 K, x2 = 0.5011) of the same compound?
**A.** 2.776 ± 0.032 mPa·s

**Q.** What about the viscosity (293.15 K, x2 = 0.6024) of the same compound?
**A.** 2.61 ± 0.03 mPa·s

**Q.** What about the viscosity (293.15 K, x2 = 0.6997) of the same compound?
**A.** 2.498 ± 0.028 mPa·s

**Q.** And the viscosity (293.15 K, x2 = 0.7998)?
**A.** 2.497 ± 0.028 mPa·s

**Q.** What about the viscosity (293.15 K, x2 = 0.9004) of the same compound?
**A.** 2.705 ± 0.03 mPa·s

**Q.** What about the mass density (293.15 K, x2 = 0) of the same compound?
**A.** 1011 ± 0.24 kg/m3

**Q.** What about the mass density (293.15 K, x2 = 0.1007) of the same compound?
**A.** 1001.61 ± 0.21 kg/m3

**Q.** And the mass density (293.15 K, x2 = 0.2003)?
**A.** 991.093 ± 0.19 kg/m3

**Q.** And the mass density (293.15 K, x2 = 0.3015)?
**A.** 978.877 ± 0.18 kg/m3

**Q.** And the mass density (293.15 K, x2 = 0.3991)?
**A.** 965.365 ± 0.17 kg/m3

**Q.** And the mass density (293.15 K, x2 = 0.5011)?
**A.** 949.011 ± 0.15 kg/m3

**Q.** What about the mass density (293.15 K, x2 = 0.6024) of the same compound?
**A.** 929.939 ± 0.15 kg/m3

**Q.** What about the mass density (293.15 K, x2 = 0.6997) of the same compound?
**A.** 908.32 ± 0.14 kg/m3

**Q.** What about the mass density (293.15 K, x2 = 0.7998) of the same compound?
**A.** 881.561 ± 0.15 kg/m3

**Q.** What about the mass density (293.15 K, x2 = 0.9004) of the same compound?
**A.** 848.418 ± 0.15 kg/m3

**Q.** What about the viscosity (298.15 K, x2 = 0) of the same compound?
**A.** 3.38 ± 0.04 mPa·s

**Q.** What about the viscosity (298.15 K, x2 = 0.1007) of the same compound?
**A.** 3.158 ± 0.037 mPa·s

**Q.** And the viscosity (298.15 K, x2 = 0.2003)?
**A.** 2.937 ± 0.034 mPa·s

**Q.** And the viscosity (298.15 K, x2 = 0.3015)?
**A.** 2.75 ± 0.032 mPa·s

**Q.** What about the viscosity (298.15 K, x2 = 0.3991) of the same compound?
**A.** 2.603 ± 0.03 mPa·s

**Q.** What about the viscosity (298.15 K, x2 = 0.5011) of the same compound?
**A.** 2.461 ± 0.028 mPa·s

**Q.** What about the viscosity (298.15 K, x2 = 0.6024) of the same compound?
**A.** 2.316 ± 0.026 mPa·s

**Q.** What about the viscosity (298.15 K, x2 = 0.6997) of the same compound?
**A.** 2.21 ± 0.025 mPa·s

**Q.** What about the viscosity (298.15 K, x2 = 0.7998) of the same compound?
**A.** 2.187 ± 0.025 mPa·s

**Q.** And the viscosity (298.15 K, x2 = 0.9004)?
**A.** 2.337 ± 0.026 mPa·s

**Q.** What about the mass density (298.15 K, x2 = 0) of the same compound?
**A.** 1006.36 ± 0.23 kg/m3

**Q.** What about the mass density (298.15 K, x2 = 0.1007) of the same compound?
**A.** 996.991 ± 0.21 kg/m3

**Q.** And the mass density (298.15 K, x2 = 0.2003)?
**A.** 986.495 ± 0.19 kg/m3

**Q.** What about the mass density (298.15 K, x2 = 0.3015) of the same compound?
**A.** 974.305 ± 0.18 kg/m3

**Q.** And the mass density (298.15 K, x2 = 0.3991)?
**A.** 960.825 ± 0.17 kg/m3

**Q.** And the mass density (298.15 K, x2 = 0.5011)?
**A.** 944.498 ± 0.16 kg/m3

**Q.** And the mass density (298.15 K, x2 = 0.6024)?
**A.** 925.479 ± 0.15 kg/m3

**Q.** And the mass density (298.15 K, x2 = 0.6997)?
**A.** 903.877 ± 0.15 kg/m3

**Q.** And the mass density (298.15 K, x2 = 0.7998)?
**A.** 877.228 ± 0.15 kg/m3

**Q.** What about the mass density (298.15 K, x2 = 0.9004) of the same compound?
**A.** 844.144 ± 0.15 kg/m3

**Q.** What about the viscosity (303.15 K, x2 = 0) of the same compound?
**A.** 3.004 ± 0.036 mPa·s

**Q.** What about the viscosity (303.15 K, x2 = 0.1007) of the same compound?
**A.** 2.805 ± 0.033 mPa·s

**Q.** What about the viscosity (303.15 K, x2 = 0.2003) of the same compound?
**A.** 2.627 ± 0.031 mPa·s

**Q.** What about the viscosity (303.15 K, x2 = 0.3015) of the same compound?
**A.** 2.472 ± 0.029 mPa·s

**Q.** And the viscosity (303.15 K, x2 = 0.3991)?
**A.** 2.344 ± 0.027 mPa·s

**Q.** What about the viscosity (303.15 K, x2 = 0.5011) of the same compound?
**A.** 2.205 ± 0.025 mPa·s

**Q.** And the viscosity (303.15 K, x2 = 0.6024)?
**A.** 2.068 ± 0.024 mPa·s

**Q.** And the viscosity (303.15 K, x2 = 0.6997)?
**A.** 1.967 ± 0.023 mPa·s

**Q.** What about the viscosity (303.15 K, x2 = 0.7998) of the same compound?
**A.** 1.933 ± 0.022 mPa·s

**Q.** What about the viscosity (303.15 K, x2 = 0.9004) of the same compound?
**A.** 2.037 ± 0.023 mPa·s

**Q.** What about the mass density (303.15 K, x2 = 0) of the same compound?
**A.** 1001.73 ± 0.23 kg/m3

**Q.** What about the mass density (303.15 K, x2 = 0.1007) of the same compound?
**A.** 992.377 ± 0.21 kg/m3

**Q.** What about the mass density (303.15 K, x2 = 0.2003) of the same compound?
**A.** 981.894 ± 0.19 kg/m3

**Q.** What about the mass density (303.15 K, x2 = 0.3015) of the same compound?
**A.** 969.723 ± 0.18 kg/m3

**Q.** What about the mass density (303.15 K, x2 = 0.3991) of the same compound?
**A.** 956.258 ± 0.17 kg/m3

**Q.** What about the mass density (303.15 K, x2 = 0.5011) of the same compound?
**A.** 939.966 ± 0.16 kg/m3

**Q.** What about the mass density (303.15 K, x2 = 0.6024) of the same compound?
**A.** 920.978 ± 0.15 kg/m3

**Q.** And the mass density (303.15 K, x2 = 0.6997)?
**A.** 899.43 ± 0.15 kg/m3

**Q.** And the mass density (303.15 K, x2 = 0.7998)?
**A.** 872.81 ± 0.15 kg/m3

**Q.** And the mass density (303.15 K, x2 = 0.9004)?
**A.** 839.81 ± 0.15 kg/m3
